Assay: Test of reduction of Methyl red by food matrices (Example 3)
Set-up: key to Increase in fluorescence over 24 hours: The symbol “−” means that there is no growth or increase in fluorescence of the medium indicating a reduction of the substrate over 24 hours
Conditions: for Increase in fluorescence over 24 hours: 35 mg/l of Methyl red in TSB, 250 nm/395 nm, 35° C.
Description: Nine food matrices, some of which have high enzymatic activity (for which the use of Tempo®TVC is not recommended), listed in Table VIII, are tested, in a microtitration plate, in the presence of 35 mg/l of Methyl red in TSB medium to which is added an antimicrobial cocktail combining 200 mg/l of chloramphenicol and 6 mg/l of gentamycin to inhibit the growth of bacteria and fungi. The matrices are tested at different concentrations: 1/400, 1/4000 and […]. To do this, 10 g of matrices are weighed out and dispersed by stomaching in 90 ml of Tryptone-salt solution, which corresponds to a 1/10 dilution, from which the test dilutions are made. The reduction of the substrate and the growth of the microorganisms are monitored using an Infinite® M200 Tecan microplate reader at 35° C. over 24 hours. The reduction of the Methyl red is monitored by reading the fluorescence with the wavelength pair 250 nm/395 nm. The potential growth of microorganisms is monitored by reading the absorbance at 660 nm. The symbol “−” means that there is no growth or increase in fluorescence of the medium indicating a reduction of the substrate over 24 hours.

For `CN(C)c1ccc(/N=N/c2ccccc2C(=O)O)cc1` [Methyl red], the “Increase in fluorescence over 24 hours” value (Avocado + ATB) was “−”, the “Increase in fluorescence over 24 hours” value (Brie de Meaux AOC cheese + ATB) was “−” and the “Increase in fluorescence over 24 hours” value (Fresh tagliatelle + ATB) was “−”. The “Increase in fluorescence over 24 hours” value (Melon + ATB) was “−”, the “Increase in fluorescence over 24 hours” value (Microfiltered whole milk + ATB) was “−” and the “Increase in fluorescence over 24 hours” value (Mussels + ATB) was “−”. For the same molecule, the “Increase in fluorescence over 24 hours” value (Pink shrimps + ATB) was “−”, the “Increase in fluorescence over 24 hours” value (Raw calf liver + ATB) was “−” and the “Increase in fluorescence over 24 hours” value (Salami + ATB) was “−”. The “reduction of the Methyl red by the food matrix (text on Table IX)” value (nine food matrices with antimicrobial cocktail, no growth of microorganisms) was “no reduction”.
